Bridge positions count the residues as written; N and C are the ends. Square brackets hold non-standard residues; d marks the D form. Peptide text beside a SMILES is read from it. * marks the point of attachment. ξ: configuration not given here. Phe(4-COOH) = N[C@@H](Cc1ccc(C(=O)O)cc1)C(=O)O; Bip = N[C@@H](Cc1ccc(-c2ccccc2)cc1)C(=O)O; Phe(3-Me) = Cc1cccc(C[C@H](N)C(=O)O)c1; Cha = N[C@@H](CC1CCCCC1)C(=O)O; Cit = NC(=O)NCCC[C@H](N)C(=O)O; Thr(3ξ) = CC(O)[C@H](N)C(=O)O; hSer = N[C@@H](CCO)C(=O)O; Carboxymethyl = O=C(O)C*; Orn = NCCC[C@H](N)C(=O)O; Aun = NCCCCCCCCCCC(=O)O; Dab = NCC[C@H](N)C(=O)O; AEEA = NCCOCCOCC(=O)O
Target: T1, PD-1/PD-L1 interaction (PE-labeled human PD-L1-Ig binding to Jurkat cell line over-expressing human PD-1) (Homo sapiens, UniProt Q15116)
T1 construct: expressed in transfected cells; host or cells: Jurkat
T1 sequence (Q15116 25-288): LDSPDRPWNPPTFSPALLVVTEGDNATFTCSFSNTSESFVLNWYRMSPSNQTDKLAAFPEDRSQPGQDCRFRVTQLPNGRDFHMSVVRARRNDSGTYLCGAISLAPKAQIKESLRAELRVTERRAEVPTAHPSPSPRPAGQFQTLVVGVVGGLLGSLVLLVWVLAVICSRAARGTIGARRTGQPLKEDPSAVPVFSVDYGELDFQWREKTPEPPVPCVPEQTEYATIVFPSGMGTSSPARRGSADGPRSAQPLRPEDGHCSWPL
Assay: Jurkat-PD-1 Cell Binding High-Content Screening Assay (CBA)
Format: cell-based
Conditions: Jurkat cell line over-expressing human PD-1; PE-labeled PD-L1-Ig 20 nM final; read-out: Jurkat hPD1-PDL1 IC50
In short: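 Jurkat cells stably over-expressing human PD-1 were seeded in DMEM with 10% fetal calf serum and pre-incubated with compound for 2 h at 37° C. PE-labeled human PD-L1-Ig was then added at 20 nM final for 1 hour, after which cells were fixed with paraformaldehyde, Hoechst-stained and imaged by high-content microscopy.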

In order of rising IC50:
1. Cc1cccc(C[C@@H]2NC(=O)[C@H](CC(=O)O)NC(=O)[C@H](Cc3ccc(OCC(=O)O)cc3)NC(=O)[C@H](C(C)O)NC(=O)CSC[C@@H](C(=O)N[C@H](CC(N)=O)C(=O)NCCCCCCCCCCC(=O)O)NC(=O)[C@H](C(C)O)NC(=O)[C@H](C(C)C)NC(=O)[C@H](CC3CCCCC3)NC(=O)[C@H](CCN)NC(=O)[C@@H](CC(C)C)NC(=O)[C@H](CCCN)NC(=O)[C@H](Cc3ccc(OCC(=O)O)cc3)NC(=O)[C@H](Cc3ccc(-c4ccccc4)cc3)NC(=O)[C@H](Cc3ccc(OCC(=O)O)cc3)NC2=O)c1 (stereo partly drawn) [Compound 3490] ({CH2CO}-[Thr(3ξ)]Y(Carboxymethyl)D[Phe(3-Me)]Y(Carboxymethyl)[Bip]Y(Carboxymethyl)[Orn][dL][Dab][Cha]V[Thr(3ξ)]C[dN][Aun]-OH; thioether N-14)  5.9 nM
2. Cc1cccc(C[C@@H]2NC(=O)[C@H](CC(=O)O)NC(=O)[C@H](Cc3ccc(OCC(=O)O)cc3)NC(=O)[C@H](C(C)O)NC(=O)CSC[C@@H](C(=O)N[C@@H](CCN)C(=O)NCCCCCCCCCCC(=O)O)NC(=O)[C@H](C(C)O)NC(=O)[C@H](C(C)C)NC(=O)[C@H](CC3CCCCC3)NC(=O)[C@H](CCN)NC(=O)[C@@H](CC(C)C)NC(=O)[C@H](CCCN)NC(=O)[C@H](Cc3ccc(OCC(=O)O)cc3)NC(=O)[C@H](Cc3ccc(-c4ccccc4)cc3)NC(=O)[C@H](Cc3ccc(C(=O)O)cc3)NC2=O)c1 (stereo partly drawn) [Compound 3484] ({CH2CO}-[Thr(3ξ)]Y(Carboxymethyl)D[Phe(3-Me)][Phe(4-COOH)][Bip]Y(Carboxymethyl)[Orn][dL][Dab][Cha]V[Thr(3ξ)]C[Dab][Aun]-OH; thioether N-14)  6.7 nM
3. Cc1cccc(C[C@@H]2NC(=O)[C@H](CC(=O)O)NC(=O)[C@H](Cc3ccc(OCC(=O)O)cc3)NC(=O)[C@H](C(C)O)NC(=O)CSC[C@@H](C(=O)N[C@@H](CCN)C(=O)NCCCCCCCCCCC(=O)O)NC(=O)[C@H](CCO)NC(=O)[C@H](C(C)C)NC(=O)[C@H](CC3CCCCC3)NC(=O)[C@H](CCN)NC(=O)[C@@H](CC(C)C)NC(=O)[C@H](CCCN)NC(=O)[C@H](Cc3ccc(OCC(=O)O)cc3)NC(=O)[C@H](Cc3ccc(-c4ccccc4)cc3)NC(=O)[C@H](Cc3ccc(OCC(=O)O)cc3)NC2=O)c1 (stereo partly drawn) [Compound 3482] ({CH2CO}-[Thr(3ξ)]Y(Carboxymethyl)D[Phe(3-Me)]Y(Carboxymethyl)[Bip]Y(Carboxymethyl)[Orn][dL][Dab][Cha]V[hSer]C[Dab][Aun]-OH; thioether N-14)  7.5 nM
4. Cc1cccc(C[C@@H]2NC(=O)[C@H](CC(=O)O)NC(=O)[C@H](Cc3ccc(OCC(=O)O)cc3)NC(=O)[C@H](CCCNC(=N)N)NC(=O)CSC[C@@H](C(=O)N[C@@H](CCN)C(=O)NCCCCCCCCCCC(=O)O)NC(=O)[C@H](C(C)O)NC(=O)[C@H](C(C)C)NC(=O)[C@H](CC3CCCCC3)NC(=O)[C@H](CCN)NC(=O)[C@@H](CC(C)C)NC(=O)[C@H](CCCNC(N)=O)NC(=O)[C@H](Cc3ccc(OCC(=O)O)cc3)NC(=O)[C@H](Cc3ccc(-c4ccccc4)cc3)NC(=O)[C@H](Cc3ccc(OCC(=O)O)cc3)NC2=O)c1 (stereo partly drawn) [Compound 3486] ({CH2CO}-RY(Carboxymethyl)D[Phe(3-Me)]Y(Carboxymethyl)[Bip]Y(Carboxymethyl)[Cit][dL][Dab][Cha]V[Thr(3ξ)]C[Dab][Aun]-OH; thioether N-14)  8.4 nM
5. Cc1cccc(C[C@@H]2NC(=O)[C@H](CC(=O)O)NC(=O)[C@H](Cc3ccc(OCC(=O)O)cc3)NC(=O)[C@H](C(C)O)NC(=O)CSC[C@@H](C(=O)N[C@@H](CCN)C(=O)NCCCCCCCCCCC(=O)O)NC(=O)[C@H](CCO)NC(=O)[C@H](C(C)C)NC(=O)[C@H](CC3CCCCC3)NC(=O)[C@H](CCN)NC(=O)[C@@H](CC(C)C)NC(=O)[C@H](CCCN)NC(=O)[C@H](Cc3ccc(OCC(=O)O)cc3)NC(=O)[C@H](Cc3ccc(-c4ccccc4)cc3)NC(=O)[C@H](Cc3ccc(C(=O)O)cc3)NC2=O)c1 (stereo partly drawn) [Compound 3483] ({CH2CO}-[Thr(3ξ)]Y(Carboxymethyl)D[Phe(3-Me)][Phe(4-COOH)][Bip]Y(Carboxymethyl)[Orn][dL][Dab][Cha]V[hSer]C[Dab][Aun]-OH; thioether N-14)  9.5 nM
6. Cc1cccc(C[C@@H]2NC(=O)[C@H](CC(=O)O)NC(=O)[C@H](Cc3ccc(OCC(=O)O)cc3)NC(=O)[C@H](CCCNC(=N)N)NC(=O)CSC[C@@H](C(=O)N[C@@H](CCN)C(=O)NCCCCCCCCCCC(=O)O)NC(=O)[C@H](C(C)O)NC(=O)[C@H](C(C)C)NC(=O)[C@H](CC3CCCCC3)NC(=O)[C@H](CCN)NC(=O)[C@@H](CC(C)C)NC(=O)[C@H](CCCN)NC(=O)[C@H](Cc3ccc(C(=O)O)cc3)NC(=O)[C@H](Cc3ccc(-c4ccccc4)cc3)NC(=O)[C@H](Cc3ccc(C(=O)O)cc3)NC2=O)c1 (stereo partly drawn) [Compound 3491] ({CH2CO}-RY(Carboxymethyl)D[Phe(3-Me)][Phe(4-COOH)][Bip][Phe(4-COOH)][Orn][dL][Dab][Cha]V[Thr(3ξ)]C[Dab][Aun]-OH; thioether N-14)  11.4 nM
7. Cc1cccc(C[C@@H]2NC(=O)[C@H](CC(=O)O)NC(=O)[C@H](Cc3ccc(OCC(=O)O)cc3)NC(=O)[C@H](C(C)O)NC(=O)CSC[C@@H](C(=O)N[C@@H](CCN)C(=O)NCCCCCCCCCCC(=O)O)NC(=O)[C@H](C(C)O)NC(=O)[C@H](C(C)C)NC(=O)[C@H](CC3CCCCC3)NC(=O)[C@H](CCN)NC(=O)[C@@H](CC(C)C)NC(=O)[C@H](CCCN)NC(=O)[C@H](Cc3ccc(OCC(=O)O)cc3)NC(=O)[C@H](Cc3ccc(-c4ccccc4)cc3)NC(=O)[C@H](CCCNC(N)=O)NC2=O)c1 (stereo partly drawn) [Compound 3485] ({CH2CO}-[Thr(3ξ)]Y(Carboxymethyl)D[Phe(3-Me)][Cit][Bip]Y(Carboxymethyl)[Orn][dL][Dab][Cha]V[Thr(3ξ)]C[Dab][Aun]-OH; thioether N-14)  16.4 nM
8. Cc1cccc(C[C@@H]2NC(=O)[C@H](CC(=O)O)NC(=O)[C@H](Cc3ccc(OCC(=O)O)cc3)NC(=O)[C@H](CCCNC(=N)N)NC(=O)CSC[C@@H](C(=O)NCCOCCOCC(=O)NCCCCCCCCCCC(=O)O)NC(=O)[C@H](C(C)O)NC(=O)[C@H](C(C)C)NC(=O)[C@H](CC3CCCCC3)NC(=O)[C@H](CCN)NC(=O)[C@@H](CC(C)C)NC(=O)[C@H](CCCNC(N)=O)NC(=O)[C@H](Cc3ccc(OCC(=O)O)cc3)NC(=O)[C@H](Cc3ccc(-c4ccccc4)cc3)NC(=O)[C@H](C(C)C)NC2=O)c1 (stereo partly drawn) [Compound 3480] ({CH2CO}-RY(Carboxymethyl)D[Phe(3-Me)]V[Bip]Y(Carboxymethyl)[Cit][dL][Dab][Cha]V[Thr(3ξ)]C[AEEA][Aun]-OH; thioether N-14)  17.5 nM
9. Cc1cccc(C[C@@H]2NC(=O)[C@H](CC(=O)O)NC(=O)[C@H](Cc3ccc(OCC(=O)O)cc3)NC(=O)[C@H](CCCNC(=N)N)NC(=O)CSC[C@@H](C(=O)N[C@H](CC(N)=O)C(=O)NCCCCCCCCCCC(=O)O)NC(=O)[C@H](C(C)O)NC(=O)[C@H](C(C)C)NC(=O)[C@H](CC3CCCCC3)NC(=O)[C@H](CCN)NC(=O)[C@@H](CC(C)C)NC(=O)[C@H](CCCN)NC(=O)[C@H](Cc3ccc(OCC(=O)O)cc3)NC(=O)[C@H](Cc3ccc(-c4ccccc4)cc3)NC(=O)[C@H](Cc3ccc(OCC(=O)O)cc3)NC2=O)c1 (stereo partly drawn) [Compound 3489] ({CH2CO}-RY(Carboxymethyl)D[Phe(3-Me)]Y(Carboxymethyl)[Bip]Y(Carboxymethyl)[Orn][dL][Dab][Cha]V[Thr(3ξ)]C[dN][Aun]-OH; thioether N-14)  22 nM
10. Cc1cccc(C[C@@H]2NC(=O)[C@H](CC(=O)O)NC(=O)[C@H](Cc3ccc(OCC(=O)O)cc3)NC(=O)[C@H](C(C)O)NC(=O)CSC[C@@H](C(=O)N[C@@H](CCN)C(=O)NCCCCCCCCCCC(=O)O)NC(=O)[C@H](C(C)O)NC(=O)[C@H](C(C)C)NC(=O)[C@H](CC3CCCCC3)NC(=O)[C@H](CCN)NC(=O)[C@@H](CC(C)C)NC(=O)[C@H](CCCNC(N)=O)NC(=O)[C@H](Cc3ccc(OCC(=O)O)cc3)NC(=O)[C@H](Cc3ccc(-c4ccccc4)cc3)NC(=O)[C@H](Cc3ccc(OCC(=O)O)cc3)NC2=O)c1 (stereo partly drawn) [Compound 3487] ({CH2CO}-[Thr(3ξ)]Y(Carboxymethyl)D[Phe(3-Me)]Y(Carboxymethyl)[Bip]Y(Carboxymethyl)[Cit][dL][Dab][Cha]V[Thr(3ξ)]C[Dab][Aun]-OH; thioether N-14)  30.6 nM
11. Cc1cccc(C[C@@H]2NC(=O)[C@H](CC(=O)O)NC(=O)[C@H](Cc3ccc(OCC(=O)O)cc3)NC(=O)[C@H](CCCNC(=N)N)NC(=O)CSC[C@@H](C(=O)NCCOCCOCC(=O)NCCCCCCCCCCC(=O)O)NC(=O)[C@H](C(C)O)NC(=O)[C@H](C(C)C)NC(=O)[C@H](CC3CCCCC3)NC(=O)[C@H](CCN)NC(=O)[C@@H](CC(C)C)NC(=O)[C@H](CCCN)NC(=O)[C@H](Cc3ccc(OCC(=O)O)cc3)NC(=O)[C@H](Cc3ccc(-c4ccccc4)cc3)NC(=O)[C@H](Cc3ccc(C(=O)O)cc3)NC2=O)c1 (stereo partly drawn) [Compound 3479] ({CH2CO}-RY(Carboxymethyl)D[Phe(3-Me)][Phe(4-COOH)][Bip]Y(Carboxymethyl)[Orn][dL][Dab][Cha]V[Thr(3ξ)]C[AEEA][Aun]-OH; thioether N-14)  59.6 nM
12. Cc1cccc(C[C@@H]2NC(=O)[C@H](CC(=O)O)NC(=O)[C@H](Cc3ccc(OCC(=O)O)cc3)NC(=O)[C@H](CCCNC(=N)N)NC(=O)CSC[C@@H](C(=O)NCCOCCOCC(=O)NCCCCCCCCCCC(=O)O)NC(=O)[C@H](C(C)O)NC(=O)[C@H](C(C)C)NC(=O)[C@H](CC3CCCCC3)NC(=O)[C@H](CCN)NC(=O)[C@@H](CC(C)C)NC(=O)[C@H](CCCNC(N)=O)NC(=O)[C@H](Cc3ccc(OCC(=O)O)cc3)NC(=O)[C@H](Cc3ccc(-c4ccccc4)cc3)NC(=O)[C@H](Cc3ccc(OCC(=O)O)cc3)NC2=O)c1 (stereo partly drawn) [Compound 3481] ({CH2CO}-RY(Carboxymethyl)D[Phe(3-Me)]Y(Carboxymethyl)[Bip]Y(Carboxymethyl)[Cit][dL][Dab][Cha]V[Thr(3ξ)]C[AEEA][Aun]-OH; thioether N-14)  71.6 nM

Source: US20260022142A1, “MACROCYCLIC IMMUNOMODULATORS” (Bristol-Myers Squibb Company, priority 2022, published 2026)
